The numbers were not newly measured in patent US6491840B1, “Polymer compositions having specified PH for improved dispensing and improved stability of wrinkle reducing compositions and methods of use” (The Procter & Gamble Company, priority 2000, dated 2002), which cites them from elsewhere.

Each structure is given as a SMILES string.

Regarding `ClC=CC[N+]12CN3CN(CN(C3)C1)C2.[Cl-]` [Dowicil 200, 1-(3-Chlorallyl)-3,5,7-triaza-1-azoniaadamantane chloride], the “solubility in water” value was “freely soluble in water”.
